From patent US20240246966A1, “NEW PYRAZOLO[1,5-a] PYRIMIDINE DERIVATIVES AS SIGMA LIGANDS” (ACONDICIONAMIENTO TARRASENSE, priority 2021, published 2024)
pKi: −log10 of the molar value.

Experiments:
[1] = target: T1, Human σ1 Receptor (Homo sapiens, UniProt Q99720); test: Human σ1 receptor radioligand assay ([3H](+)-pentazocine, transfected HEK-293 membranes); settings: human σ1, [3H](+)-pentazocine 5 nM, binding expressed as Ki, read-out: Binding σ-1
T1 construct: expressed in transfected cells; host or cells: HEK-293
Protocol: Human σ1 Receptor Radioligand Assay
Transfected HEK-293 membranes (7 μg) were incubated with 5 nM of [^3H](+)-pentazocine in assay buffer containing Tris-HCl 50 mM at pH 8. NBS (non-specific binding) was measured by adding 10 μM haloperidol. The binding of the test compound was measured at either one concentration (% inhibition at 1 or 10 μM) or five different concentrations to determine affinity values (Ki). Plates were incubated at 37° C. for 120 minutes. After the incubation period, the reaction mix was then transferred to MultiScreen HTS, FC plates (Millipore), filtered and plates were washed 3 times with ice-cold 10 mM Tris-HCL (pH 7.4). Filters were dried and counted at approximately 40% efficiency in a MicroBeta scintillation counter (Perkin-Elmer) using EcoScint liquid scintillation cocktail.

[2] = target: T2, Human σ2/TMEM97 receptor (Homo sapiens, UniProt Q5BJF2); test: Binding assay to human σ2/TMEM97 receptor ([3H]-DTG, transfected HEK-293 membranes); settings: human σ2/TMEM97, [3H]-DTG 10 nM, binding expressed as Ki, read-out: Binding σ-2
T2 construct: expressed in transfected cells; host or cells: HEK-293
Protocol: Binding Assay to Human ρ2/TMEM97 Receptor
Transfected HEK-293 membranes (15 μg) were incubated with 10 nM [^3H]-1,3-Di-o-tolylguanidine ( DTG) in assay buffer containing Tris-HCl 50 mM at pH 8.0. NSB (non-specific binding) was measured by adding 10 μM haloperidol. The binding of the test compound was measured at either one concentration (% inhibition at 1 or 10 μM) or five different concentrations to determine affinity values (Ki). Plates were incubated at 25° C. for 120 minutes. After the incubation period, the reaction mix was transferred to MultiScreen HTS, FC plates (Millipore), filtered and washed 3 times with ice-cold 10 mM Tris-HCL (pH 8.0). Filters were dried and counted at approximately 40% efficiency in a MicroBeta scintillation counter (Perkin-Elmer) using EcoScint liquid scintillation cocktail.

T2 sequence (Q5BJF2 whole entry): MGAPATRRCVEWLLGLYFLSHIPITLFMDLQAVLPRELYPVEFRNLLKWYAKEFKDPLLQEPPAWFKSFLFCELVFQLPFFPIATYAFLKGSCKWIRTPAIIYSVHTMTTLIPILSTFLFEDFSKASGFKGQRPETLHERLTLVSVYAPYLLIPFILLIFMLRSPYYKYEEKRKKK
T1 sequence (Q99720 whole entry): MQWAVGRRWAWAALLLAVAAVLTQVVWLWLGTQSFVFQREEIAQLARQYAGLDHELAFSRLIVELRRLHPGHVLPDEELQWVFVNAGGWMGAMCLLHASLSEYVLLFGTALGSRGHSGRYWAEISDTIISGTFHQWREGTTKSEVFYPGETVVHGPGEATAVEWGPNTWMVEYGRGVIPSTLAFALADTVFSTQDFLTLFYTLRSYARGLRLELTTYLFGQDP

SMILES	pKi [1]	pKi [2]
CCN(CC)Cc1cnc2c(-c3ccnc(C(F)(F)F)c3)cnn2c1 [Example 12, N-Ethyl-N-((3-(2-(trifluoromethyl)pyridin-4-yl)pyrazolo[1,5-a]pyrimidin-6-yl)methyl)ethanamine]	> 7.00	< 6.00
Cc1cc(-c2cnn3cc(CN4CCC5(CCOCC5)CC4)cnc23)ccn1 [Example 26, 9-((3-(2-Methylpyridin-4-yl)pyrazolo[1,5-a]pyrimidin-6-yl)methyl)-3-oxa-9-azaspiro[5.5]undecane]	6.30 to 7.00	< 6.00
FC(F)(F)c1cc(-c2cnn3cc(CN4CCC(c5ccccc5)CC4)cnc23)ccn1 [Example 6, 6-((4-Phenylpiperidin-1-yl)methyl)-3-(2-(trifluoromethyl)pyridin-4-yl)pyrazolo[1,5-a]pyrimidine]	> 7.00	6.30 to 7.00
COC1CCN(Cc2cnc3c(-c4ccc(C(F)(F)F)nc4)cnn3c2)CC1 [Example 21, 6-((4-Methoxypiperidin-1-yl)methyl)-3-(6-(trifluoromethyl)pyridin-3-yl)pyrazolo[1,5-a]pyrimidine]	> 7.00	< 6.00
FC(F)(F)c1cc(-c2cnn3cc(CN4CCN(C5COC5)CC4)cnc23)ccn1 [Example 35, 6-((4-(Oxetan-3-yl)piperazin-1-yl)methyl)-3-(2-(trifluoromethyl)pyridin-4-yl)pyrazolo[1,5-a]pyrimidine]	6.00 to 6.30	< 6.00
Fc1cnccc1-c1cnn2cc(CN3CCCC3)cnc12 [Example 3, 3-(3-Fluoropyridin-4-yl)-6-(pyrrolidin-1-ylmethyl)pyrazolo[1,5-a]pyrimidine]	> 7.00	< 6.00
OC1CCN(Cc2cnc3c(-c4ccnc(C(F)(F)F)c4)cnn3c2)CC1 [Example 36, 1-((3-(2-(Trifluoromethyl)pyridin-4-yl)pyrazolo[1,5-a]pyrimidin-6-yl)methyl)piperidin-4-ol]	> 7.00	< 6.00
Cc1cc(-c2cnn3cc(CN4CCCOCC4)cnc23)ccn1 [Example 24, 4-((3-(2-Methylpyridin-4-yl)pyrazolo[1,5-a]pyrimidin-6-yl)methyl)-1,4-oxazepane]	6.30 to 7.00	< 6.00
FC(F)(F)c1ccncc1-c1cnn2cc(CN3CCC4(CC3)COC4)cnc12 [Example 17, 7-((3-(4-(Trifluoromethyl)pyridin-3-yl)pyrazolo[1,5-a]pyrimidin-6-yl)methyl)-2-oxa-7-azaspiro[3.5]nonane]	> 7.00	< 6.00
FC(F)(F)c1cc(-c2cnn3cc(CN4CCCC4)cnc23)ccn1 [Example 1, 6-(Pyrrolidin-1-ylmethyl)-3-(2-(trifluoromethyl)pyridin-4-yl)pyrazolo[1,5-a]pyrimidine]	> 7.00	< 6.00
Cc1nc2c(-c3ccnc(C(F)(F)F)c3)cnn2c(C)c1CN1CCC2(CC1)COC2 [Example 37, 7-((5,7-Dimethyl-3-(2-(trifluoromethyl)pyridin-4-yl)pyrazolo[1,5-a]pyrimidin-6-yl)methyl)-2-oxa-7-azaspiro[3.5]nonane]	> 7.00	6.00 to 6.30

Second part, the molecule after the results:

pKi [1]	pKi [2]	SMILES
> 7.00	< 6.00	FC(F)(F)c1cc(-c2cnn3cc(CN4CCC5(CC4)COC5)cnc23)ccn1 [Example 9, 7-((3-(2-(Trifluoromethyl)pyridin-4-yl)pyrazolo[1,5-a]pyrimidin-6-yl)methyl)-2-oxa-7-azaspiro[3.5]nonane]
> 7.00	6.00 to 6.30	N#Cc1ncccc1-n1ccc2cc(CN3CCC4(CCOCC4)CC3)cnc21 [Example 53, 3-(5-((3-Oxa-9-azaspiro[5.5]undecan-9-yl)methyl)-1H-pyrrolo[2,3-b]pyridin-1-yl) picolinonitrile]
> 7.00	> 7.00	FC(F)(F)c1cc(-n2ccc3cc(CN4CCC5(CCOCC5)CC4)cnc32)ccn1 [Example 46, 9-((1-(2-(Trifluoromethyl)pyridin-4-yl)-1H-pyrrolo[2,3-b]pyridin-5-yl)methyl)-3-oxa-9-azaspiro[5.5]undecane]
> 7.00	< 6.00	FC(F)(F)c1cc(-c2cnn3cc(CN4CC5(CCOCC5)C4)cnc23)ccn1 [Example 33, 2-((3-(2-(Trifluoromethyl)pyridin-4-yl)pyrazolo[1,5-a]pyrimidin-6-yl)methyl)-7-oxa-2-azaspiro[3.5]nonane]
> 7.00	6.30 to 7.00	FC(F)(F)c1ccc(-n2ccc3cc(CN4CCC5(CC4)COC5)cnc32)cn1 [Example 42, 7-((1-(6-(Trifluoromethyl)pyridin-3-yl)-1H-pyrrolo[2,3-b]pyridin-5-yl)methyl)-2-oxa-7-azaspiro[3.5]nonane]
< 6.00	< 6.00	FC(F)(F)c1cc(-c2cnn3cc(CN4CCOCC4)cnc23)ccn1 [Example 29, 4-((3-(2-(Trifluoromethyl)pyridin-4-yl)pyrazolo[1,5-a]pyrimidin-6-yl)methyl)morpholine]
> 7.00	< 6.00	FC(F)(F)c1ncccc1-n1ccc2cc(CN3CC4(CCOCC4)C3)cnc21 [Example 56, 2-((1-(2-(Trifluoromethyl)pyridin-3-yl)-1H-pyrrolo[2,3-b]pyridin-5-yl)methyl)-7-oxa-2-azaspiro[3.5]nonane]
> 7.00	6.30 to 7.00	FC(F)(F)c1ccc(-n2ccc3cc(CN4CCC5(CCOCC5)CC4)cnc32)cn1 [Example 48, 9-((1-(6-(Trifluoromethyl)pyridin-3-yl)-1H-pyrrolo[2,3-b]pyridin-5-yl)methyl)-3-oxa-9-azaspiro[5.5]undecane]
> 7.00	6.00 to 6.30	FC(F)(F)c1ncccc1-n1ccc2cc(CN3CCC4(CCOC4)CC3)cnc21 [Example 54, 8-((1-(2-(Trifluoromethyl)pyridin-3-yl)-1H-pyrrolo[2,3-b]pyridin-5-yl)methyl)-2-oxa-8-azaspiro[4.5]decane]
> 7.00	6.00 to 6.30	FC(F)(F)c1ccc(-n2ccc3cc(CN4CCCOCC4)cnc32)cn1 [Example 52, 4-((1-(6-(Trifluoromethyl)pyridin-3-yl)-1H-pyrrolo[2,3-b]pyridin-5-yl)methyl)-1,4-oxazepane]
> 7.00	< 6.00	Cc1cc(-c2cnn3cc(CN4CC5(CCOCC5)C4)cnc23)ccn1 [Example 27, 2-((3-(2-Methylpyridin-4-yl)pyrazolo[1,5-a]pyrimidin-6-yl)methyl)-7-oxa-2-azaspiro[3.5]nonane]
> 7.00	6.30 to 7.00	FC(F)(F)c1cc(-c2cnn3cc(CN4CCCOCC4)cnc23)ccn1 [Example 31, 4-((3-(2-(Trifluoromethyl)pyridin-4-yl)pyrazolo[1,5-a]pyrimidin-6-yl)methyl)-1,4-oxazepane]
> 7.00	6.00 to 6.30	COC1CCN(Cc2cnc3c(ccn3-c3ccnc(C(F)(F)F)c3)c2)CC1 [Example 49, 5-((4-Methoxypiperidin-1-yl)methyl)-1-(2-(trifluoromethyl)pyridin-4-yl)-1H-pyrrolo[2,3-b]pyridine]
> 7.00	6.30 to 7.00	FC(F)(F)c1cc(-n2ccc3cc(CN4CCC5(CCOC5)CC4)cnc32)ccn1 [Example 43, 8-((1-(2-(Trifluoromethyl)pyridin-4-yl)-1H-pyrrolo[2,3-b]pyridin-5-yl)methyl)-2-oxa-8-azaspiro[4.5]decane]
